Source: patent publication US12398140B2, “Substituted pyrrolo [2,3-d]pyrimidines for treating familial dysautonomia” (PTC THERAPEUTICS, INC., priority 2019, dated 2025)
Structures can show the parent of a compound that is named as a salt.

Tested on: Elongator complex protein 1 (ELPI, also referred to as IKBKAP)
Assay: IKBKAP-HTRF assay (IKBKAP protein in lysates of FD patient-derived fibroblasts)
Type: cell-based, human
Settings: FD patient-derived fibroblasts GM04589, 48 hours, 7-point concentration curve
In short: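 FD patient-derived fibroblasts (10,000/well) treated 48 h at 37 °C with compound across a 7-point 3.16-fold series, in triplicate; lysates assayed by sandwich HTRF with two anti-IKAP antibodies, overnight at 4 °C, 665/620 nm read. MFI = ΔF over vehicle; EC2x = concentration doubling IKBKAP protein versus DMSO.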

Compound	EC2x for IKBKAP protein expression (concentration producing two times the amount of IKBKAP protein vs DMSO vehicle control)	MFI (maximum fold increase in IKBKAP protein abundance relative to the vehicle control)
[2H]C([2H])([2H])NCCc1cc2c(NCc3ccco3)nc(Cl)nc2[nH]1 [Cpd 9, 2-chloro-N-[(furan-2-yl)methyl]-6-{2-[(^2H3)methylamino]ethyl}-7H-pyrrolo[2,3-d]pyrimidin-4-amine hydrochloride]	*** (between >0.02 μM and ≤0.5 μM is indicated by three stars (***))	**** (between >3.9 and ≤4.9 is indicated by four stars (****))
C[C@H](N)Cc1c(F)c2c(NCc3ccccn3)nc(Cl)nc2n1C.Cl.Cl [Cpd 55, 6-[(2S)-2-aminopropyl]-2-chloro-5-fluoro-7-methyl-N-[(pyridin-2-yl)methyl]-7H-pyrrolo[2,3-d]pyrimidin-4-amine dihydrochloride]	* (An EC2x>1 μM is indicated by one star (*))	* (An MFI≤1.9 is indicated by one star (*))
